Experimental data taken from ChEMBL document CHEMBL1151031, “Lipophilic bis-arylsulfonates as inhibitors of the CD4-gp120 interaction” (Bioorg Med Chem Lett, 1996).

Experiments:
[1] = Inhibition of gp120 binding to CEM cells in vitro.; type: functional, cell-based; conditions: ccrf-cem
[2] = Inhibition of HIV gp120 binding to CD4 receptor using ELISA assay; parameters: species or system Human immunodeficiency virus 1
CCRF-CEM [3] = experiment: Compound was evaluated for the cytotoxicity against CEM cells; type: functional; conditions: Homo sapiens, read-out: CD50 (the source's name)
CCRF-CEM [4] = experiment: Compound was evaluated for the inhibition of gp120 binding to monoclonal antibodies in CEM cells; Flat dose response; type: functional, cell-based, Homo sapiens

IC50 [1]	IC50 [2]	IC50 (CCRF-CEM [4])	SMILES	CC50 (CCRF-CEM [3])
52 µM	130 µM		O=S(=O)(O)c1ccc2c(C(=CC3CCCCCCCCCCCCCC3)c3cccc4cc(S(=O)(=O)O)ccc34)cccc2c1	
7 µM	10 µM		CC(C)CCCC(C)[C@H]1CC[C@H]2[C@@H]3CCC4CC(CCC=C(c5cccc6ccc(S(=O)(=O)O)cc56)c5cccc6ccc(S(=O)(=O)O)cc56)CC[C@]4(C)[C@H]3CC[C@]12C (some centres undefined)	120 µM
24 µM	83 µM		C[C@]12CC[C@H]3[C@@H](CCC4CC(C=C(c5cccc6cc(S(=O)(=O)O)ccc56)c5cccc6cc(S(=O)(=O)O)ccc56)CC[C@@]43C)[C@@H]1CC[C@@H]2O (some centres undefined)	
150 µM	> 400 µM		O=S(=O)(O)c1ccc2c(C(=CC3CCCCCCCCC3)c3cccc4cc(S(=O)(=O)O)ccc34)cccc2c1	
35 µM	107 µM		C[C@]12CCC(C=C(c3cccc4cc(S(=O)(=O)O)ccc34)c3cccc4cc(S(=O)(=O)O)ccc34)CC1CC[C@@H]1[C@@H]2CC[C@]2(C)C(=O)CC[C@@H]12 (some centres undefined)	
49 µM	292 µM		O=S(=O)(O)c1ccc2c(C(=CCCc3ccc4c(c3)CCc3ccccc3-4)c3cccc4cc(S(=O)(=O)O)ccc34)cccc2c1	
47 µM	13 µM		CC(C)CCCC(C)[C@H]1CC[C@H]2[C@@H]3CCC4CC(CCC=C(c5ccc(S(=O)(=O)O)cc5)c5ccc(S(=O)(=O)O)cc5)CC[C@]4(C)[C@H]3CC[C@]12C (some centres undefined)	135 µM
25 µM	10 µM		CC(C)CCCC(C)[C@H]1CC[C@H]2[C@@H]3CCC4CC(C=C(c5cccc6ccc(S(=O)(=O)O)cc56)c5cccc6ccc(S(=O)(=O)O)cc56)CC[C@]4(C)[C@H]3CC[C@]12C (some centres undefined)	125 µM
	62 µM	Flat dose response	CC(C)CCCC(C)[C@H]1CC[C@H]2[C@@H]3CCC4CC(C=C(c5cccc(S(=O)(=O)O)c5)c5cccc(S(=O)(=O)O)c5)CC[C@]4(C)[C@H]3CC[C@]12C (some centres undefined)	
6 µM	16 µM		CC(C)CCCC(C)[C@H]1CC[C@H]2[C@@H]3CCC4CC(C=C(c5cccc6cc(S(=O)(=O)O)ccc56)c5cccc6cc(S(=O)(=O)O)ccc56)CC[C@]4(C)[C@H]3CC[C@]12C (some centres undefined)	
12 µM	33 µM		C=CCO[C@H]1CC[C@H]2[C@@H]3CCC4CC(C=C(c5cccc6cc(S(=O)(=O)O)ccc56)c5cccc6cc(S(=O)(=O)O)ccc56)CC[C@]4(C)[C@H]3CC[C@]12C (some centres undefined)	100 µM
23 µM	41 µM		CCCCCCCC1(C)CCc2c(C)c(OCCC=C(c3cccc4cc(S(=O)(=O)O)ccc34)c3cccc4cc(S(=O)(=O)O)ccc34)c(C)c(C)c2O1 (centres undefined)	
	56 µM		CCCCC/C=C/C/C=C/CCCCCCC=C(c1cccc2cc(S(=O)(=O)O)ccc12)c1cccc2cc(S(=O)(=O)O)ccc12	
39 µM	10 µM		CC(C)CCCC(C)[C@H]1CC[C@H]2[C@@H]3CCC4CC(C=C(c5ccc(S(=O)(=O)O)cc5)c5ccc(S(=O)(=O)O)cc5)CC[C@]4(C)[C@H]3CC[C@]12C (some centres undefined)	56 µM
7 µM	9 µM		CC(C)CCCC(C)[C@H]1CC[C@H]2[C@@H]3CCC4CC(CCC=C(c5cccc6cc(S(=O)(=O)O)ccc56)c5cccc6cc(S(=O)(=O)O)ccc56)CC[C@]4(C)[C@H]3CC[C@]12C (stereo in doubt; 1401)	
> 170 µM	> 350 µM		O=S(=O)(O)c1ccc2c(C(=CCCc3ccc4ccccc4c3)c3cccc4cc(S(=O)(=O)O)ccc34)cccc2c1	
5 µM	25 µM		CCCCCCCCCCCCCCCCC1(C)CCc2c(C)c(OCCC=C(c3cccc4cc(S(=O)(=O)O)ccc34)c3cccc4cc(S(=O)(=O)O)ccc34)c(C)c(C)c2O1 (centres undefined)	
17 µM	26 µM		C[C@@]12CCC[C@H]1[C@@H]1CCC3CC(C=C(c4cccc5cc(S(=O)(=O)O)ccc45)c4cccc5cc(S(=O)(=O)O)ccc45)CC[C@]3(C)[C@H]1CC2 (some centres undefined)	
	192 µM		CCCCCCCCCCCCCCCCC=C(c1cccc2cc(S(=O)(=O)O)ccc12)c1cccc2cc(S(=O)(=O)O)ccc12	
13 µM	26 µM		CC(C)CCCC(C)[C@H]1CC[C@H]2[C@@H]3CC[C@@H]4CC(C=C(c5cccc6cc(S(=O)(=O)O)ccc56)c5cccc6cc(S(=O)(=O)O)ccc56)CC[C@]4(C)[C@H]3CC[C@]12C (some centres undefined)	
6 µM	31 µM		CC(C)CCCC(C)[C@H]1CC[C@H]2[C@@H]3CCC4CC(OCCC=C(c5cccc6cc(S(=O)(=O)O)ccc56)c5cccc6cc(S(=O)(=O)O)ccc56)CC[C@]4(C)[C@H]3CC[C@]12C (some centres undefined)	
9 µM	18 µM		CC(C)CCCC(C)[C@H]1CC[C@H]2[C@@H]3CCC4CC(CCC=C(c5cccc6cc(S(=O)(=O)O)ccc56)c5cccc6cc(S(=O)(=O)O)ccc56)CC[C@]4(C)[C@H]3CC[C@]12C (stereo in doubt)	

SMILES	IC50 [1]	IC50 [2]	IC50 (CCRF-CEM [4])	CC50 (CCRF-CEM [3])
CC(C)CCCC(C)[C@H]1CC[C@H]2[C@@H]3CCC4C[C@@H](CCC=C(c5cc(Cl)c(O)c(C(=O)O)c5)c5cc(Cl)c(O)c(C(=O)O)c5)CC[C@]4(C)[C@H]3CC[C@]12C (some centres undefined)	5 µM	18 µM		
